Test [1] deals with T1, Alpha-2C adrenergic receptor (Homo sapiens, UniProt P18825).
T1 sequence (P18825 whole entry): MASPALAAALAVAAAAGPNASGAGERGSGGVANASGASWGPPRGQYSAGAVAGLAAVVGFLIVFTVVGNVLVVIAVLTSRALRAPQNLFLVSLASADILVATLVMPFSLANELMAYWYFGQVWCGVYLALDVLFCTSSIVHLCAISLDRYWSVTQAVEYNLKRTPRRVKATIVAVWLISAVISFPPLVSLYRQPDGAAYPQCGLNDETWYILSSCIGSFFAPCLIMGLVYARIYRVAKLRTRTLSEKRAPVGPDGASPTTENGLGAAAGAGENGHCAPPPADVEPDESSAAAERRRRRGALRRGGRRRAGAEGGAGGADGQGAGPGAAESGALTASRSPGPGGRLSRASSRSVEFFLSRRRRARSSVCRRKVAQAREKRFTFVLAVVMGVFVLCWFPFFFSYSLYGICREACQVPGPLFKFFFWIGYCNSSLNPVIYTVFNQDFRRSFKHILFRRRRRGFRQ
Kind of test: Binding affinity to alpha2C AR (unknown origin) assessed as inhibition constant.

The target in test [2] is T2, 5-hydroxytryptamine receptor 6 (Homo sapiens, UniProt P50406). In words: Displacement of [125I]cAMP-tracer from 5-HT6R in human HeLa cells assessed as measuring cAMP level incubated for 15 mins by radioimmunoassay. Format: cell-based.
Test [3] addresses 5-hydroxytryptamine receptor 7 (Homo sapiens, UniProt P34969). Kind of test: Binding affinity to 5-HT7R (unknown origin) assessed as inhibition constant.
Test [4] addresses T2, 5-hydroxytryptamine receptor 6. Kind of test: Binding affinity to 5-HT6R (unknown origin) assessed as inhibition constant.
The target in test [5] is T3, 5-hydroxytryptamine receptor 1A (Homo sapiens, UniProt P08908).
T3 sequence (P08908 whole entry): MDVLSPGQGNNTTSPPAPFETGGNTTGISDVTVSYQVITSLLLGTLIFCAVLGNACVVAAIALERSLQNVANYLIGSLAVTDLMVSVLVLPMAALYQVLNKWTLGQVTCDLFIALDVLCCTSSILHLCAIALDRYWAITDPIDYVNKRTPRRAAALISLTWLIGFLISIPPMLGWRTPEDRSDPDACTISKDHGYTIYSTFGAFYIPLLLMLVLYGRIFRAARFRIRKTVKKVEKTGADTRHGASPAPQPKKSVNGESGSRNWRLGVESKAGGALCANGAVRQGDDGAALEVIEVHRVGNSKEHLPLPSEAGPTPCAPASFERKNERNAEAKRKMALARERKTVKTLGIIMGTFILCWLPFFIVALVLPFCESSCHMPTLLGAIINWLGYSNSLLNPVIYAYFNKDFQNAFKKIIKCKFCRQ
Kind of test: Binding affinity to 5-HT1A (unknown origin) assessed as inhibition constant.

pKi: −log10 of the molar value.

Sequence of 5-hydroxytryptamine receptor 7 (P34969 whole entry): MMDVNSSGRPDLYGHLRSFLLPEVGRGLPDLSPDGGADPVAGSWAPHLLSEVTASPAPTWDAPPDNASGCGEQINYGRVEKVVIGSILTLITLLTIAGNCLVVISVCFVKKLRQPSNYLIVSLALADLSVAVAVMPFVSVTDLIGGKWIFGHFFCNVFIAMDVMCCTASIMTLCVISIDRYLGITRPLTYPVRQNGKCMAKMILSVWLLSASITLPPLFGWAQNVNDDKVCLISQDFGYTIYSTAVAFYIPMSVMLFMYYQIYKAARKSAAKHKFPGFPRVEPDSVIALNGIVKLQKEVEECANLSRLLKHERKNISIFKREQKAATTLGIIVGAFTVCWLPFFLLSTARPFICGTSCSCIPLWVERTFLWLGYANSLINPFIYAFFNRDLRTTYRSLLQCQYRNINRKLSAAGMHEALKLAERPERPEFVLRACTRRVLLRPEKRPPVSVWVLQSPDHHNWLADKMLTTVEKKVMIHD
T2 sequence (P50406 whole entry): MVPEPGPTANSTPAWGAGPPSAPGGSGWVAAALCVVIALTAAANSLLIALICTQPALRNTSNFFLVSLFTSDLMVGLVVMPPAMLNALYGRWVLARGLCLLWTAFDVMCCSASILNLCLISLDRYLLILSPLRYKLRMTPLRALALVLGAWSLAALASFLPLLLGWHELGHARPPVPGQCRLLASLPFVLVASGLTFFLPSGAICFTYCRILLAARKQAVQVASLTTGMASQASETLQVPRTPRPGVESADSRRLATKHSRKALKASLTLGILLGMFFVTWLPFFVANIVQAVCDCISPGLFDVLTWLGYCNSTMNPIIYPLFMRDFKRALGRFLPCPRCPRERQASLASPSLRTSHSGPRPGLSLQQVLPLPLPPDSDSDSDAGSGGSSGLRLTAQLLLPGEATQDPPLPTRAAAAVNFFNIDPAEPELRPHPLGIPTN

As to `O=C1C2C3CCC(C3)C2C(=O)N1CC1CCCCC1CN1CCN(c2nsc3ccccc23)CC1` (stereo not given), the pKi in test [1] is 7.96.
With `COc1cc(NS(=O)(=O)c2ccc(OC)c(N3CCNCC3)c2)c(Cl)cc1Cl`, the pKi in test [2] is 9.01.
Consider `Clc1ccc(-c2nn(Cc3ccccc3)c3c2CCNCC3)cc1` [JNJ-18038683 FREE BASE], for which, in test [3], the pKi is 8.52.
With `CCOCC(Oc1c(C)cccc1C)N1CCN(c2ccccc2OC)CC1` (stereo not given), the pKi was 5.00 in test [4], 7.39 in test [5] and 6.81 in test [3].
Take `CCOCC(Oc1c(C)cccc1Cl)N1CCN(c2ccccc2OC)CC1` (stereo not given): the pKi is 5.02 in test [4], more than 9.00 in test [5] and 7.47 in test [3].
In the case of `CCN1CCCC1CNC(=O)c1cc(S(N)(=O)=O)ccc1OC` (stereo not given) [SULPIRIDE], the pKi in test [3] is less than 5.52.

By pKi is commonly meant −log10 of the Ki, conventionally taken in molar units.

Source of the values: ChEMBL document CHEMBL5214911, “Chemical update on the potential for serotonin 5-HT6 and 5-HT7 receptor agents in the treatment of Alzheimer's disease” (Bioorg Med Chem Lett, 2021).
